Data: EP4438596A1, “DIAMINOPYRIMIDINE DERIVATIVES AS HDAC AND DHFR DUAL-TARGETING INHIBITORS AND USE THEREOF IN PREVENTING AND TREATING MALARIA” (Université de Lille, priority 2023, dated 2024)
Structures can show the parent of a compound that is named as a salt. Where two headings read alike, the source gives them in different places.

Columns and labels:
[1] = tested on: P. falciparum 3D7-infected erythrocytes; experiment: Plasmodium falciparum growth inhibition assay (SYBR Green I, flow cytometry), drug-sensitive strain; type: cell-based
Method: (§1) Plates were incubated under standard P. falciparum culture conditions for 48 h. […] Fixed parasitized red blood cells (RBC) were stored at 4 °C in the dark until flow cytometry analysis. Parasite growth was assessed by flow cytometry on a BD FACS Cantoll (BD Biosciences) or a Attune™ NxT Flow Cytometer (Invitrogen). Cell doublets were excluded from the analysis using a forward scatter (FSC)-width versus FSC-area dot plot. Infected and uninfected erythrocytes were gated on the basis of their FSC and side scatter (SSC) signals. Fluorescence analysis (Green fluorescence FITC) was performed using BD FACSDiva software (BD Biosciences) on a total of 200,000 acquired events. […] Fluorescence of non-infected RBC was adjusted to plot between 10° and 10^2. Results are expressed as the percentage of growth inhibition.
(§2) All IC50 values were calculated using log-linear interpolation (www.antimalarial-icestimator.net), with mean values (± SD) determined over at least two independent experiments.

[2] = tested on: P. berghei ANKA parasites; experiment: Peters 4-day suppressive test, oral efficacy in P. berghei-infected mice; type: in vivo, Plasmodium berghei
Method: Compounds powder was dissolved in DMSO and sonicated for 10 min. Appropriate volume of 50%W/v HPβCD was added dropwise under gentle swirling. After 10 min sonication, DPBS was added dropwise under gentle swirling and the mixture was sonicated again for 10 min. After checking the pH (5.5 - 7), the solution was filtered (0.22µm) and conserved at room temperature for max 2 days. Final concentration of compounds was 2.5 mg/mL, 1 mg/mL or 0.1 mg/mL for mice treatment with 25 mg/kg, 10 mg/kg or 1mg/kg doses.
10 weeks-old Balb/C male mice were purchased from Janvier Labs.
P. berghei ANKA parasites stabilates conserved in liquid nitrogen were thawed and injected intraperitoneally (ip) into 2-3 mice (10^6 infected red blood cells (RBC) / mouse). When parasitemia reached 3-5%, mice were bled and groups of six BALB/c male mice were infected with 10^6 P. berghei ANKA parasites (day 0), and treated per os (p.o.) twice a day on days 0, 1, 2 and 3. […] On day 4 post infection (p.i.), the peripheral blood parasitemia of all mice was evaluated via microscopic examination of Giemsa-stained thin blood smears. Parasitemia was then followed for two weeks.

[3] = tested on: multidrug-resistant P. falciparum line Dd2; experiment: Plasmodium falciparum growth inhibition assay (SYBR Green I, flow cytometry), multidrug-resistant line; type: cell-based; conditions: line resistant to CQ, PYR and mefloquine, mean ± SD
Method: as §1, §2

[4] = Plasmodium falciparum, 3D7, Erythrocyte, 48 h incubation, mean ± SD, n ≥ 2, read-out: Pf3D7 IC50
[5] = Experiment 3, 1 mg/kg p.o. twice a day on days 0-3
[6] = Experiment 3, Balb/C mice, 1 mg/kg p.o. twice a day on days 0-3, day 4 p.i.
[7] = Experiment 3, Balb/C mice, 1 mg/kg p.o. twice a day on days 0-3, day 5 p.i.
[8] = Experiment 3, Balb/C mice, 1 mg/kg p.o. twice a day on days 0-3, day 6 p.i.
[9] = Experiment 3, Balb/C mice, 1 mg/kg p.o. twice a day on days 0-3, day 7 p.i.
[10] = Experiment 3, Balb/C mice, 1 mg/kg p.o. twice a day on days 0-3, day 8 p.i.
[11] = Experiment 3, Balb/C mice, 1 mg/kg p.o. twice a day on days 0-3, day 10 p.i.
[12] = Plasmodium falciparum, DD2, 48 h, n ≥ 2, read-out: PfDd2 IC50
[13] = Plasmodium falciparum, 3D7, Erythrocyte, 48 h incubation, read-out: IC50 (Pf3D7)
[14] = Plasmodium falciparum, 3D7, Erythrocyte, 48 h, read-out: Pf3D7 IC50

## CCc1nc(N)nc(N)c1OCCCOc1cccc(C(=O)NO)c1.Cl [8·HCl, 3-[3-(2,4-Diamino-6-ethylpyrimidin-5-yloxy)propoxy]-N-hydroxybenzamide hydrochloride]
[1]; [4]
  IC50: 0.845 ± 0.108 nM
[2]; Experiment 2 (Fig. 2), Balb/C mice, 10mg/kg orally twice a day on days 0,1,2,3
  activity in vivo against Plasmodium berghei: active in vivo
[2]; [5]
  ranking of activity against P. berghei infection: most active
[2]; Experiment 3, 1 mg/kg p.o. twice a day on days 0-3, day 4 p.i.
  parasites in treated mice: undetectable
[2]; [6]
  number of mice showing blood parasites: 0/6
  parasitemia (mean ± sd): 0%
[2]; [7]
  number of mice showing blood parasites: 0/6
  parasitemia (mean ± sd): 0%
[2]; [8]
  number of mice showing blood parasites: 2/6
  parasitemia (mean ± sd): 0,08 ± 0,13%
[2]; [9]
  number of mice showing blood parasites: 2/6
  parasitemia (mean ± sd): 0,32 ± 0,49%
[2]; [10]
  number of mice showing blood parasites: 3/6
  parasitemia (mean ± sd): 1,37 ± 2,07%
[2]; [11]
  number of mice showing blood parasites: 4/6
  parasitemia (mean ± sd): 2,41 ± 2,84%
[2]; Experiments 1 and 2, 10 mg/kg p.o. twice a day on days 0-3, day 4 p.i.
  parasites in treated mice: undetectable
[2]; Experiments 1 and 2, 10 mg/kg p.o. twice a day on days 0-3, until the end of the experiments
  parasites in treated mice, follow-up: remained undetectable
[2]; oral route, 10 mg/kg
  parasite clearance after oral administration: achieved parasite clearance
[3]; [12]
  IC50: 138 nM
[3]; 48 h, n ≥ 2, listed as 8, hydrochloride, read-out: PfDd2 IC50
  IC50: 138 ± 25.4 nM

## CCc1nc(N)nc(N)c1OCCCOc1cc(C(=O)NO)ccc1Cl [Compound 9, 4-Chloro-3-[3-(2,4-diamino-6-ethylpyrimidin-5-yloxy)propoxy]-N-hydroxybenzamide]
[1]; [4]
  IC50: 0.172 ± 0.027 nM
[1]; [13]
  IC50: < 0.2 nM
[3]; [12]
  IC50: 16.9 ± 3.2 nM

## CCN(CC)CCCC(C)Nc1ccnc2cc(Cl)ccc12 (stereo not drawn) [CQ, chloroquine, reference compound]
[1]; [14]
  IC50: 4.7 ± 1.7 nM
[2]; Experiment 3, positive control, 10 mg/kg p.o. once a day for 4 days, day 4 p.i.
  parasitemia (mean ± sd): 0%
[2]; Experiment 3, positive control, 10 mg/kg p.o. once a day for 4 days, day 5 p.i.
  parasitemia (mean ± sd): 0%
[2]; Experiment 3, positive control, 10 mg/kg p.o. once a day for 4 days, day 6 p.i.
  parasitemia (mean ± sd): 0%
[2]; Experiment 3, positive control, 10 mg/kg p.o. once a day for 4 days, day 7 p.i.
  parasitemia (mean ± sd): 0%
[2]; Experiment 3, positive control, 10 mg/kg p.o. once a day for 4 days, day 8 p.i.
  parasitemia (mean ± sd): 0%
[2]; Experiment 3, positive control, 10 mg/kg p.o. once a day for 4 days, day 10 p.i.
  parasitemia (mean ± sd): 0%

## N-(4-Acetoxybenzyloxy)-3-(2-(3-(2,4-diamino-6-ethylpyrimidin-5-yloxy)propoxy)phenyl)propenamide [Compound 6]
[1]; 48 h incubation, mean ± SD, n ≥ 2, read-out: Pf3D7 IC50
  IC50: 0.169 ± 0.041 nM

## CCc1nc(N)nc(N)c1OCCCOc1ccccc1/C=C/C(=O)NOCc1ccc(OC(C)=O)cc1 [Compound 16, (E)-N-(4-Acetoxybenzyloxy)-3-{2-[3-(2,4-diamino-6-ethylpyrimidin-5-yloxy)propoxy]phenyl}acrylamide]
[1]; [4]
  IC50: 0.067 ± 0.005 nM
[1]; [13]
  IC50: < 0.1 nM
[2]; [6]
  number of mice showing blood parasites: 1/5
[2]; Experiment 3, Balb/C mice, 1 mg/kg p.o. twice a day on days 0-3, day 4 p.i., 1 mg/kg
  parasitemia (mean ± sd): 0,02 ± 0,04%
[2]; [7]
  number of mice showing blood parasites: 2/5
  parasitemia (mean ± sd): 0,48 ± 0,72%
[2]; [8]
  number of mice showing blood parasites: 3/5
  parasitemia (mean ± sd): 2,22 ± 2,44%
[2]; [9]
  number of mice showing blood parasites: 3/5
  parasitemia (mean ± sd): 5,21 ± 7,86%
[2]; [10]
  number of mice showing blood parasites: 5/5
  parasitemia (mean ± sd): 5,33 ± 5,64%
[2]; [11]
  number of mice showing blood parasites: 5/5
  parasitemia (mean ± sd): 9,25 ± 7,38%

## CCc1nc(N)nc(N)c1OCCCOc1cc(Cl)ccc1/C=C/C(=O)NO [Compound 15, (E)-3-{4-Chloro-2-[3-(2,4-diamino-6-ethylpyrimidin-5-yloxy)propoxy]phenyl}-N-hydroxyacrylamide]
[1]; [4]
  IC50: 0.082 ± 0.007 nM
[1]; [13]
  IC50: < 0.1 nM
[3]; [12]
  IC50: 4 ± 0.4 nM

## CCc1nc(N)nc(N)c1OCCCOc1cccc(COc2cccc(/C=C/C(=O)NO)c2)c1 [Compound 21, (E)-3-(3-(3-[3-(2,4-Diamino-6-ethylpyrimidin-5-yloxy)propoxy]benzyloxy)phenyl)-N-hydroxyacrylamide hydrochloride]
[1]; [4]
  IC50: 0.347 ± 0.047 nM

## CCc1nc(N)nc(N)c1OCCCOc1cc(Cl)ccc1CCC(=O)NO [5·HCl, 3-(4-Chloro-2-[3-(2,4-diamino-6-ethylpyrimidin-5-yloxy)propoxy]phenyi)-N-hydroxypropanamide hydrochloride]
[1]; [14]
  IC50: 0.279 ± 0.154 nM

## CCc1nc(N)nc(N)c1OCCCOc1cccc(/C=C/C(=O)NO)c1 [19·HCl, (E)-3-{3-[3-(2,4-Diamino-6-ethylpyrimidin-5-yloxy)propoxy]phenyl}-N-hydroxyacrylamide hydrochloride]
[1]; [4]
  IC50: 0.173 ± 0.021 nM
[1]; [13]
  IC50: < 0.2 nM
[3]; [12]
  IC50: 41.5 ± 11.9 nM

## CCc1nc(N)nc(N)c1OCCCOc1cc(OC)ccc1/C=C/C(=O)NO [14·HCl, (E)-3-{2-[3-(2,4-Diamino-6-ethylpyrimidin-5-yloxy)propoxy]-4-methoxyphenyl}-N-hydroxyacrylamide hydrochloride]
[1]; [4]
  IC50: 0.088 ± 0.02 nM
[1]; [13]
  IC50: < 0.1 nM

## CCc1nc(N)nc(N)c1OCCCOc1ccccc1/C=C/C(=O)NOCc1ccccc1 [Compound 17, (E)-N-(Benzyloxy)-3-{2-[3-(2,4-diamino-6-ethylpyrimidin-5-yloxy)propoxy]phenyl}acrylamide]
[1]; [4]
  IC50: 0.331 ± 0.124 nM

## CCc1nc(N)nc(N)c1OCCCOc1cc(C(=O)NO)ccc1F [Compound 10, 3-(3-[2,4-Diamino-6-ethylpyrimidin-5-yloxy)propoxy]-4-fluoro-N-hydroxybenzamide]
[1]; [4]
  IC50: 0.39 ± 0.012 nM

## CCc1nc(N)nc(N)c1OCCCOc1ccc(C(=O)NCCCCCCC(=O)NO)cc1 [Compound 31, 4-{3-[(2,4-Diamino-6-ethylpyrimidin-5-yl)oxy]propoxy}-N-[7-(hydroxyamino)-7-oxoheptyl]benzamide]
[1]; [4]
  IC50: 0.404 ± 0.136 nM
[3]; [12]
  IC50: 22.8 ± 2.6 nM

## CCc1nc(N)nc(N)c1OCCOc1cccc(/C=C/C(=O)NO)c1 [18·HCl, (E)-3-(3-[2-(2,4-Diamino-6-ethylpyrimidin-5-yloxy)ethoxy]phenyl)-N-hydroxyacrylamide hydrochloride]
[1]; [4]
  IC50: 0.249 ± 0.015 nM

## CCc1nc(N)nc(N)c1OCCCOc1ccccc1CCC(=O)NOCc1ccccc1 [Compound 7, N-(Benzyloxy)-3-(2-(3-(2,4-diamino-6-ethylpyrimidin-5-yloxy)propoxy)phenyl)propanamide]
[1]; [4]
  IC50: 0.497 ± 0.055 nM

## CCc1nc(N)nc(N)c1OCCCOc1ccc(/C=C/C(=O)NO)cc1 [20·HCl, (E)-3-{4-[3-(2,4-Diamino-6-ethylpyrimidin-5-yloxy)propoxy]phenyl}-N-hydroxyacrylamide hydrochloride]
[1]; [4]
  IC50: 0.117 ± 0.045 nM
[1]; [13]
  IC50: < 0.2 nM

## CCc1nc(N)nc(N)c1OCCCOc1cc(OC)ccc1CCC(=O)NO [4·HCl, 3-(2-[3-(2,4-Diamino-6-ethylpyrimidin-5-yloxy)propoxy]-4-methoxyphenyl)-N-hydroxypropanamide hydrochloride]
[1]; [4]
  IC50: 0.173 ± 0.122 nM
[1]; [13]
  IC50: < 0.2 nM
[3]; [12]
  IC50: 6.2 ± 0.5 nM

## CCc1nc(N)nc(N)c1OCCCOc1cccc(C(=O)NCCCCCCC(=O)NO)c1 [Compound 30, 3-{3-[(2,4-Diamino-6-ethylpyrimidin-5-yl)oxy]propoxy}-N-[7-(hydroxyamino)-7-oxoheptyl]benzamide]
[1]; [4]
  IC50: 0.876 ± 0.018 nM

## CCc1nc(N)nc(N)c1OCCCCOc1ccccc1CCC(=O)NO [3·HCl, 3-(2-[4-(2,4-Diamino-6-ethylpyrimidin-5-yloxy)butoxy]phenyl)-N-hydroxypropanamide hydrochloride]
[1]; [4]
  IC50: 0.451 ± 0.088 nM

## CCc1nc(N)nc(N)c1OCCCOc1cccc(C(=O)NOCc2ccc(OC(C)=O)cc2)c1 [Compound 11, N-(4-Acetoxybenzyloxy)-3-[3-(2,4-diamino-6-ethylpyrimidin-5-yloxy)propoxy]benzamide]
[1]; [4]
  IC50: 1.02 ± 0.68 nM
[1]; [13]
  IC50: < 0.2 nM
[2]; [5]
  ranking of activity against P. berghei infection: most active
